Source: PubChem BioAssay AID1949 (Southern Research Institute, 2009)
Converted amounts (≈) assume the structure as drawn. Results filed as inconclusive are left out. The source made the active and inactive calls. The rule behind the calls is not given here.

Test system: M. tuberculosis H37Rv growth inhibition
Test: Mycobacterium tuberculosis H37Rv growth inhibition, cell based, confirmatory dose response (AID 1949);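 note: bacteria grown 7 days with compound before Alamar blue readout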

| SMILES | IC50 |
| --- | --- |
| CCCc1ccc(OC(=O)c2cc3ccccc3oc2=O)cc1 | 22.4 µg/mL (≈ 72.5 µM) |
| O=C(CSc1n[nH]c(-c2ccc(Cl)cc2)n1)Nc1ccccc1Cl | 4.21 µg/mL (≈ 11.1 µM) |
| CC(C)OC(=O)C(C)Oc1ccc2c(-c3ccccc3)cc(=O)oc2c1 (stereo not drawn) | 1.63 µg/mL (≈ 4.63 µM) |
| COc1ccc(OC(C)C(=O)Nc2ccc(I)cc2)cc1 (stereo not drawn) | 0.32 µg/mL (≈ 0.806 µM) |
| O=C(CCN1CCc2ccccc2C1)c1ccc2c(c1)OCCO2 | 14.9 µg/mL (≈ 46 µM) |
| CC(CCc1ccccc1)Nc1cc(N2CCNCC2)ccc1[N+](=O)[O-] (stereo not drawn) | > 50 µg/mL (inactive) |
| O=C(Nc1ccc([N+](=O)[O-])cc1)c1nc[nH]c1C(=O)NCc1ccccc1 | 7.92 µg/mL (≈ 21.7 µM) |
| Cc1cc(Cl)c(OCCCNCc2ccccc2)c(Br)c1 | 11.3 µg/mL (≈ 30.7 µM) |
| Oc1ccc(Br)cc1C1=NNC(c2ccc(F)cc2)C1 (stereo not drawn) | 2.89 µg/mL (≈ 8.62 µM) |
| Cc1ccccc1C(=O)Nc1sc2c(c1C(=O)NCCO)CCC(C(C)(C)C)C2 (stereo not drawn) | > 50 µg/mL (inactive) |
| CCCCOC(=O)c1cccc(NC(=O)c2cccc(Cl)c2)c1 | 4.03 µg/mL (≈ 12.1 µM) |
| CC(C)(C)c1ccc(C(=O)NC(=S)NCc2ccco2)cc1 | 2.16 µg/mL (≈ 6.83 µM) |
| C=CCNCCCCOc1ccc(Cl)cc1C(C)(C)C | 4.64 µg/mL (≈ 15.7 µM) |
| O=C(Nc1ccc(N2CCCC2)c(Cl)c1)c1ccccc1F | 5.78 µg/mL (≈ 18.1 µM) |
| CCCCN1CCC(O)(c2ccccc2)C(C(=O)c2ccccc2)C1 (stereo not drawn) | 11.4 µg/mL (≈ 33.9 µM) |
| O=C(COc1ccc(Cl)cc1Cl)Oc1cccc2cccnc12 | 5.88 µg/mL (≈ 16.9 µM) |
| CCn1c(/C=C/c2ccc([N+](=O)[O-])o2)nc2ccc(I)cc2c1=O | 2.04 µg/mL (≈ 4.67 µM) |
| Cc1ccccc1N1C(=O)NC(=O)/C(=C\c2ccc([N+](=O)[O-])s2)C1=O | 6.22 µg/mL (≈ 17.4 µM) |
| O=C(Oc1ccc(Cl)cc1)c1sc2ccccc2c1Cl | 24.2 µg/mL (≈ 74.9 µM) |
| CN(Cc1ccccc1)C(=S)NC(=O)c1cccs1 | 0.74 µg/mL (≈ 2.55 µM) |

| SMILES | IC50 |
| --- | --- |
| CCN1CCN(c2ccc(NC(=O)c3cc(Br)cc(C)c3OC)cc2Cl)CC1 | 4.8 µg/mL (≈ 10.3 µM) |
| COc1cc(NC(=O)c2cc3ccccc3o2)ccc1NC(=O)c1ccccc1Cl | 2.31 µg/mL (≈ 5.49 µM) |
| O=[N+]([O-])c1c(Nc2ccccc2)[nH]c2ccccc12 | 9.27 µg/mL (≈ 36.6 µM) |
| CCc1nccn1S(=O)(=O)c1ccccc1[N+](=O)[O-] | > 50 µg/mL (inactive) |
| COc1cccc2c1OC(c1ccccc1)C([N+](=O)[O-])=C2 (stereo not drawn) | 0.7 µg/mL (≈ 2.47 µM) |
| Cc1nn(-c2ccccc2)c(C)c1N1C(=O)c2cccc3cc([N+](=O)[O-])cc(c23)C1=O | 0.15 µg/mL (≈ 0.364 µM) |
| Cc1ccc(NC(=O)c2ccc(OCC(=O)OC3CCCCC3)cc2)cc1 | 2.73 µg/mL (≈ 7.43 µM) |
| CC(C)(C)c1ccc(C(=O)Nc2nc(-c3ccccc3)ns2)cc1 | 3.05 µg/mL (≈ 9.04 µM) |
| CCOC(=O)c1ccc(NC(=O)c2ccc(C)s2)cc1 | 2.22 µg/mL (≈ 7.67 µM) |
| CCc1ccc(C(=O)NC(=S)Nc2ccc(Cc3ccncc3)cc2)cc1 | 10.9 µg/mL (≈ 29.1 µM) |
| CN1CCN(c2ccc(C(=O)Nc3cccc(Cl)c3)cc2[N+](=O)[O-])CC1 | 4.41 µg/mL (≈ 11.8 µM) |
| CC1=CC(C)(C)Nc2ccc(OC(=O)c3cccnc3)cc21 | 2.88 µg/mL (≈ 9.78 µM) |
| CCOC(=O)c1ccc(NC(=O)CSc2nnc(-c3ccc(OC)cc3)o2)cc1 | 0.17 µg/mL (≈ 0.411 µM) |
| O=[N+]([O-])c1c(Sc2ncnc3ccccc23)ccc2nsnc12 | 22.2 µg/mL (≈ 65.1 µM) |
| COc1cc([N+](=O)[O-])ccc1NC(=S)Nc1ccc(OC(F)F)c(Cl)c1 | 3.41 µg/mL (≈ 8.44 µM) |
| Cc1cccc(N2CCN(C3=NC(=O)C(=C4CCCCC4)S3)CC2)c1 | 0.78 µg/mL (≈ 2.19 µM) |
| O=C(Oc1cccc2cccnc12)c1ccccc1F | 2.7 µg/mL (≈ 10.1 µM) |
| COc1cccc(OC)c1C(=O)Nc1cccc(-c2nc3cc(C)ccc3o2)c1 | > 50 µg/mL (inactive) |
| O=C(Nc1ccccc1Cl)c1cc([N+](=O)[O-])ccc1O | 7.53 µg/mL (≈ 25.7 µM) |
| COc1cccc(C2Oc3ccccc3C=C2[N+](=O)[O-])c1OC (stereo not drawn) | > 50 µg/mL (inactive) |

| SMILES | IC50 |
| --- | --- |
| Nc1c(C(=O)NCc2ccc(Cl)cc2)sc2nc3c(c(C(F)(F)F)c12)CCC3 | 9.45 µg/mL (≈ 22.2 µM) |
| CCc1cc(I)ccc1NC(=O)c1ccc([N+](=O)[O-])o1 | 1.61 µg/mL (≈ 4.17 µM) |
| O=C(Oc1cccc2cccnc12)c1ccco1 | 0.75 µg/mL (≈ 3.14 µM) |
| COc1ccccc1-n1c(=O)oc2ccc(Cl)cc2c1=O | 4.95 µg/mL (≈ 16.3 µM) |
| CN(C)C(=S)NC(=O)c1cccc(Cl)c1 | 4.63 µg/mL (≈ 19.1 µM) |
| O=C(Oc1ccccc1)c1ccc(COC(=O)c2ccco2)cc1 | 2.69 µg/mL (≈ 8.35 µM) |
| CCN1CCN(c2ccc([N+](=O)[O-])c(-n3nc(-c4ccc(Cl)cc4)c4ccccc4c3=O)c2)CC1 | 5.6 µg/mL (≈ 11.4 µM) |
| CC(C(=O)OCc1ccccc1Cl)n1cnc2scc(-c3ccc(Cl)cc3)c2c1=O (stereo not drawn) | > 50 µg/mL (inactive) |
| Cn1nc([N+](=O)[O-])nc1Oc1ccc(Br)cc1 | 7.92 µg/mL (≈ 26.5 µM) |
| CCc1ccccc1N1C(=O)c2cccc3c([N+](=O)[O-])ccc(c23)C1=O | 19 µg/mL (≈ 54.9 µM) |
| O=C(CCN1C(=O)C2C3C=CC(C3)C2C1=O)Oc1cccc2cccnc12 (stereo not drawn) | 14.8 µg/mL (≈ 40.7 µM) |
| CCOC(=O)c1ccc2nc(C)cc(Nc3ccc(N4CCCCC4)cc3)c2c1 | 2.41 µg/mL (≈ 6.19 µM) |
| Cc1ccc2[nH]c3c(c2c1)CCCC3NCCCOc1ccc(F)cc1 (stereo not drawn) | 1.7 µg/mL (≈ 4.82 µM) |
| CCOC(=O)C(C)Oc1ccc2c(-c3ccc(OC)cc3)cc(=O)oc2c1 (stereo not drawn) | 1.35 µg/mL (≈ 3.66 µM) |
| Nc1c2c(nc3sc4c(c13)CCCC4)CCCC2 | 0.6 µg/mL (≈ 2.32 µM) |
| O=C1c2cccc3cccc(c23)C(=O)N1CCN1CCN(CC(O)COCc2ccc(Cl)cc2)CC1 (stereo not drawn) | 3.05 µg/mL (≈ 6 µM) |
| CCOC(=O)COc1ccc(-c2ccc(C)cc2)cc1 | 0.33 µg/mL (≈ 1.22 µM) |
| COc1ccc(C(=O)NC(=S)Nc2ccc(N3CCCCC3)cc2)cc1OC | 1.38 µg/mL (≈ 3.45 µM) |
